The values that follow come from US11649255B2, “Indazoles as hematopoietic progenitor kinase 1 (HPK1) inhibitors and methods using same” (1st Biotherapeutics, Inc., priority 2020, dated 2023).

The target in this experiment is recombinant human HPK1 (Homo sapiens (Human), UniProt Q92918). In words: HPK1 kinase assay (ADP-Glo). The format is biochemical. Conditions: 25 μM ATP, MBP substrate. In outline: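 Activity was read as ADP formed, detected by ADP-Glo luminescence after the reaction of 5 ng recombinant human HPK1 with MBP and ATP (stocks 0.5 μg/μl and 25 μM) for 40 min at 30 °C. Buffer was Tris pH 7.5 with MgCl2, BSA and DTT, with compound in 0.5% DMSO. IC50 came from inhibition curves.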
On the technique in general: ADP-Glo turns the ADP formed in a reaction into a luminescent signal.

recombinant human HPK1, sequence (Q92918 whole entry): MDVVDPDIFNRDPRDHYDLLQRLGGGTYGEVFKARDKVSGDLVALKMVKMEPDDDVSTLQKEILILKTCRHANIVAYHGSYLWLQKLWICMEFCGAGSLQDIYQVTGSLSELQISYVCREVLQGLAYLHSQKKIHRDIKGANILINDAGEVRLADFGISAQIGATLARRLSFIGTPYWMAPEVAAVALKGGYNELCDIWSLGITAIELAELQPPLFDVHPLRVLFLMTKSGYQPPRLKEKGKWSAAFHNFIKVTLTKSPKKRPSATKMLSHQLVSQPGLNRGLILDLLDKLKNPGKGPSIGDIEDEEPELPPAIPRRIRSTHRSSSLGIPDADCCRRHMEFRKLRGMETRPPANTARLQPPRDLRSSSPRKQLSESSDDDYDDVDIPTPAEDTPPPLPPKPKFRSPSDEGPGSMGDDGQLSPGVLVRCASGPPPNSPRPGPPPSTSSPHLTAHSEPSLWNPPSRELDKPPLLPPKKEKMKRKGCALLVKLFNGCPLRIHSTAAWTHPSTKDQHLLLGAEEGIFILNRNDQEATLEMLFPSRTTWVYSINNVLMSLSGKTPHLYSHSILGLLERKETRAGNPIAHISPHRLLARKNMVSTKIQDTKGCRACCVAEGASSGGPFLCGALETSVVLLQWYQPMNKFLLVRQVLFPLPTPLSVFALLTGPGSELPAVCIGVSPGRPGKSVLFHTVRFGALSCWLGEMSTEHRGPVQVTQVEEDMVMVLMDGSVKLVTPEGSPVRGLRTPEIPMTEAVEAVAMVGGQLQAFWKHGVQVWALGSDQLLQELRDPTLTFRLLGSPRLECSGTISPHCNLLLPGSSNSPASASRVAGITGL

On to `COc1cc(C)c(-c2ccc3nc(NC(=O)[C@@H]4C[C@@H]4F)sc3c2)c2cn[nH]c12` [Example 96, (1S,2S)-2-fluoro-N-(6-(7-methoxy-5-methyl-1H-indazol-4-yl)benzo[d]thiazol-2-yl)cyclopropanecarboxamide], for which the half-inhibitory concentration (IC50) is < 100 nM.

`COc1c(F)c(C)c(-c2ccc3nc(NC(=O)[C@@H]4C[C@@H]4F)sc3c2)c2cn[nH]c12` [Example 97, (1S,2S)-2-fluoro-N-(6-(6-fluoro-7-methoxy-5-methyl-1H-indazol-4-yl)benzo[d]thiazol-2-yl)cyclopropanecarboxamide]: the IC50 was < 100 nM.

Regarding `CCOc1c(F)c(C)c(-c2ccc3nc(NC(=O)[C@@H]4C[C@@H]4F)sc3c2)c2cn[nH]c12` [Example 98, (1S,2S)-N-(6-(7-ethoxy-6-fluoro-5-methyl-1H-indazol-4-yl)benzo[d]thiazol-2-yl)-2-fluorocyclopropanecatboxamide], the half-maximal inhibitory concentration (IC50) was < 100 nM.

Turning to `CN(C)C(=O)CSc1c(F)c(Cl)c(-c2ccc3nc(NC(=O)[C@@H]4C[C@@H]4F)sc3c2)c2cn[nH]c12` [Example 99, (1S,2S)-N-(6-(5-chloro-7-((2-(dimethylamino)-2-oxoethyl)thio)-6-fluoro-1H-indazol-4-yl)benzo[d]thiazol-2-yl)-2-fluorocyclopropane-1-carboxamide], the IC50 was < 100 nM.

Regarding `CN(C)C(=O)CN(C)c1c(F)c(Cl)c(-c2ccc3nc(NC(=O)[C@@H]4C[C@@H]4F)sc3c2)c2cn[nH]c12` [Example 100, (1S,2S)-N-(6-(5-chloro-7-((2-(dimethylamino)-2-oxoethyl)(methyl)amino)-6-fluoro-1H-indazol-4-yl)benzo[d]thiazol-2-yl)-2-fluorocyclopropane-1-carboxamide], the half-inhibitory concentration (IC50) is < 100 nM.

For the compound `CCOc1cc(C)c(-c2ccc3nc(NC(=O)[C@@H]4C[C@@H]4F)sc3c2)c2cn[nH]c12` [Example 101, (1S,2S)-N-(6-(7-ethoxy-5-methyl-1H-indazol-4-yl)benzo[d]thiazol-2-yl)-2-fluorocyclopropane-1-carboxamide], the concentration for half-maximal inhibition (IC50) is < 100 nM.

On to `CCc1c(F)c(N(C)C)c2[nH]ncc2c1-c1ccc2nc(NC(=O)[C@@H]3C[C@@H]3F)sc2c1` [Example 102, (1S,2S)-N-(6-(7-(dimethylamino)-5-ethyl-6-fluoro-1H-indazol-4-yl)benzo[d]thiazol-2-yl)-2-fluorocyclopropane-1-carboxamide], for which the IC50 is < 100 nM.

Regarding `CCc1c(F)c(SC)c2[nH]ncc2c1-c1ccc2nc(NC(=O)[C@@H]3C[C@@H]3F)sc2c1` [Example 103, (1S,2S)-N-(6-(5-ethyl-6-fluoro-7-(methylthio)-1H-indazol-4-yl)benzo[d]thiazol-2-yl)-2-fluorocyclopropane-1-carboxamide], the 50% inhibitory concentration (IC50) was < 100 nM.

On to `CCc1c(F)c(F)c2[nH]ncc2c1-c1ccc2nc(NC(=O)[C@@H]3C[C@@H]3F)sc2c1` [Example 106, (1S,2S)-N-(6-(5-ethyl-6,7-difluoro-1H-indazol-4-yl)benzo[d]thiazol-2-yl)-2-fluorocyclopropane-1-carboxamide], for which the IC50 is < 100 nM.

As for `CC(=O)Nc1c(F)c(Cl)c(-c2ccc3nc(NC(=O)[C@@H]4C[C@@H]4F)sc3c2)c2cn[nH]c12` [Example 108, (1S,2S)-N-(6-(7-acetamido-5-chloro-6-fluoro-1H-indazol-4-yl)benzo[d]thiazol-2-yl)-2-fluorocyclopropane-1-carboxamide], the IC50 is < 100 nM.

Consider `Cc1c(F)c(F)c2[nH]ncc2c1-c1ccc2nc(NC(=O)[C@@H]3C[C@@H]3F)sc2c1` [Example 109, (1S,2S)-N-(6-(6,7-difluoro-5-methyl-1H-indazol-4-yl)benzo[d]thiazol-2-yl)-2-fluorocyclopropane-1-carboxamide], for which the IC50 is < 100 nM.

With `Cc1c(F)c(S(C)(=O)=O)c2[nH]ncc2c1-c1ccc2nc(NC(=O)[C@@H]3C[C@@H]3F)sc2c1` [Example 112, (1S,2S)-2-fluoro-N-(6-(6-fluoro-5-methyl-7-(methylsulfonyl)-1H-indazol-4-yl)benzo[d]thiazol-2-yl)cyclopropane-1-carboxamide], the IC50 fell in the range of 101 to 500 nM.

Usually IC50 stands for the concentration needed to halve the response being measured.
